Here are results for 2 compounds from US20260166046A1, “Inhibitors of methionine aminopeptidase-2 and methods of preparation and uses thereof” (Primetime Life Sciences LLC, priority 2022, published 2026).

For series [1] the following is noted: in vivo; cited from earlier work.
Another series addresses T1, Recombinant human MetAP2 (Homo sapiens, UniProt P50579).
T1 construct: purchased Bio-Techne/R&D systems
The experiment in a line: MetAP2 fluorescence assay. Type of series: biochemical. The note with it: recombinant human MetAP2, H-Met-Gly-Pro-AMC substrate.

For a further series, the system named is E. histolytica HM1: IMSS. The series is described as follows: Trophozoite viability IC50 determination, Amebae assay (ATPLite). The note with it: Entamoeba histolytica, 72 h, read-out: Cell viability values Mean IC50 (nM) E. histolytica HM1: IMSS. Type of series: cell-based. A general note: In ATP-based viability assays light output follows the ATP content of the culture.

In a further series the test system is G. lamblia GS. The experiment in a line: Trophozoite viability IC50 determination, Giardia assay (ATPLite). The class given is cell-based. The settings on record: Giardia duodenalis, 72 h, read-out: Cell viability values Mean IC50 (nM) G. lamblia GS.
The subject of a further series is G. lamblia WB. The description is as above. Type of series: cell-based. The note with it: Giardia duodenalis, 72 h, read-out: Cell viability values Mean IC50 (nM) G. lamblia WB.

Each structure is given as a SMILES string.

T1 sequence (P50579 whole entry): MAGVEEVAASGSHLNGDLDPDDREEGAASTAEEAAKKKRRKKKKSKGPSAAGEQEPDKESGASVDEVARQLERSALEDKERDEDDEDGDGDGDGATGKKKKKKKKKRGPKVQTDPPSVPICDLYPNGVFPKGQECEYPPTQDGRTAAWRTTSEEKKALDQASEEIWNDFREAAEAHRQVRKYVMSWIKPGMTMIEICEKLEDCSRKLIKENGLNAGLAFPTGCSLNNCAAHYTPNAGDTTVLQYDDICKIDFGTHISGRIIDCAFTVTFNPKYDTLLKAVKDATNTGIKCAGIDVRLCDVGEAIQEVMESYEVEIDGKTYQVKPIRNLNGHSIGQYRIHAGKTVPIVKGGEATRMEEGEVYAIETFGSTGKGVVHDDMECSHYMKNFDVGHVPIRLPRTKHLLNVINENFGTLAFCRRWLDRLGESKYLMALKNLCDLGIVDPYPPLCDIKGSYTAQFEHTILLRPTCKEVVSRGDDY

Take `CO[C@@H]1[C@H](OC(=O)/C=C/C=C/C=C/C=C/C(=O)O)CC[C@]2(CO2)[C@H]1[C@@]1(C)O[C@@H]1CC=C(C)C` [Fumagillin]: in series [1], the body weight loss is > 15%, the “immune-compromised patients with reversible toxic effect on bone marrow (primarily Thrombocytopenia)” value is 33% and the “spontaneous platelet count recovery after halting therapy” value is reported as 1-2 weeks.

In the case of `CO[C@@H]1[C@H](OC(=O)Nc2cc(B(O)O)cc(C(=O)O)c2)CC[C@]2(CO2)[C@H]1[C@@]1(C)O[C@@H]1CC=C(C)C` [No 21], the IC50 at Recombinant human MetAP2 was < 10 nM; in the series with E. histolytica HM1: IMSS, 101 to 1000 nM; with G. lamblia GS, 101 to 1000 nM; in the series with G. lamblia WB, 101 to 1000 nM.

A word on the IC50: it is the concentration needed to halve the response being measured.
